Article PMC7591920, “A protein tertiary structure mimetic modulator of the Hippo signalling pathway” (Nature Communications, 2020)
Bridge positions count the residues as written; N and C are the ends. Peptide text beside a SMILES is read from it.

Tests used:
RKO cells [1] = test: Total drug content in RKO cells by UPLC-MS; settings: 25 µM compound
Description: (§2) Peptides were incubated in RKO cells (ATCC, #CRL-2577) as follows: Experiment 1: RKO cells were incubated in 25 µM compound for 90 min and 24 h. Experiment 2: RKO cells were incubated in 25 µM for 30 min or 72 h. Following peptide incubation, the cells were washed twice with PBS, trypsinized and pelleted. The pellets were lysed in RIPA buffer (Perkin Elmer) for total lysis, or CelLytic NuCLEAR Extraction Kit (SIGMA) for subcellular fractionation. Total protein quantification BCA (Pierce) was performed prior to MS analysis to normalize sample data. Total and fractionated cell lysates were analysed by quantitative UPLC-MS utilizing a Waters Xevo TQ-XS (WBA0259) and an Acquity UPLC system from Waters consisting of Sample Manager (M16UFL953M), Acquity PDA (F17UPD457A), Column Oven (E17CMP703G) and Binary Solvent Manager (E17BUR621G). […] Chromatograms of the samples were treated similarly, and by linear regression (1/x) an in-cell concentration was established in the re-suspended cell lysate using the Waters MassLynx TargetLynx^TM product.

mTEAD4 = molecular target: T1, mTEAD4 (Mus musculus, UniProt Q62296); test: SPR binding to immobilised mTEAD4; settings: mTEAD4 amine-coupled on CM5, multi-cycle, steady-state fit 1:1 model, 10 mM HEPES 150 mM NaCl 0.05% Tween-20 pH 7.4, 0.3% DMSO, 20 °C, Fig. 1 values n = 1 replicate
T1 construct: Mouse TEAD4(210–427) cDNA fused with a 6x His-tag and a 3C protease cleavage site; 6x His-tag; 3C protease cleavage site; made in house; host or cells: E. coli BL21 DE3 RIL(K+)
Outline: (§1)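 Proteins amine-coupled (NHS/EDC) to CM5 chips from 10 mM MES pH 6.4; running buffer 10 mM HEPES, 150 mM NaCl, 0.05% Tween-20, pH 7.4, 20 °C, 30 µL min^−1. Multi-cycle kinetics: seven threefold analyte dilutions from 30 µM, 45 s contact, 6-min dissociation, reference-surface subtracted.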

[2] = test system: primary juvenile (P5–P6) rat cardiomyocytes; test: Cell cycle activity assay (Ki67/αActinin) in juvenile rat cardiomyocytes; format: cell-based
Description: One day after seeding, the cells were treated with test compounds of interest. Treatments were applied with an ECHO 520 acoustic dispenser (Labcyte) and medium was added to the wells. Four days after treatment, the cells were fixed with 4% formaldehyde (Roth) and immunostained in 0.2% Triton-X100 (Roth) in PBS (Gibco) supplemented with 5% FBS. […] Samples were then imaged and analysed on an ImageXpress XL automated microscope (Molecular Devices). Data are depicted as means ± SEM.

RKO cells [3] = test: Wound closure assay; format: cell-based; settings: c = 30 µM, 48 h treatment
Description: Ca. 100,000 RKO cells were seeded per well in a transparent ImageLock 96-well plate (#4379, Essen Bioscience) and treated with the samples the next day. Wound Healing Assay was performed using the IncuCyte® ZOOM system and the WoundMaker™ device (both Essen Bioscience). The scratch was performed according to manufacturer’s protocol and images were acquired every 2 h. Image-based analysis of wound closure was conducted using the IncuCyte ZOOM 2016B software (Essen Bioscience). Confluency within the wound area was normalized to the confluency at the time of scratch preparation and plotted using GraphPad Prism 6.

GST-hTEAD1 = molecular target: T2, GST-hTEAD1 (Homo sapiens, UniProt P28347); test: SPR binding to immobilised GST-hTEAD1; settings: GST-hTEAD1 amine-coupled on CM5, multi-cycle, steady-state fit 1:1 model, 10 mM HEPES 150 mM NaCl 0.05% Tween-20 pH 7.4, 0.3% DMSO, 20 °C, Fig. 1 values n = 1 replicate
T2 construct: CDNA of hTEAD1(209–426) fused with an N-terminal GST tag; made in house; host or cells: Escherichia coli BL21 DE3 RIL(K+)
Outline: as §1

RKO cells [4] = test: Sub-cellular (cytoplasmic, nuclear) peptide concentration in RKO cells by UPLC-MS; settings: for Sub-cellular drug content, Cytoplasm, Measured concentration / Sub-cellular drug content, Cytoplasm, nMol / Sub-cellular drug content, Nuclear, Measured concentration / Sub-cellular drug content, Nuclear, nMol / Sub-cellular drug content, Cytoplasm, pMol.mg-1 / Sub-cellular drug content, Nuclear, pMol.mg-1: 25 µM compound, n = 2; for Sub-cellular drug content, Cytoplasm, pMol.mg-1 / Sub-cellular drug content, Nuclear, pMol.mg-1: per mg protein; for Cytoplasmic concentration of peptide: cytoplasmic fraction; for Nuclear concentration of peptide: nuclear fraction; for Cytoplasmic concentration, raw data / Nuclear concentration, raw data: sheet Figure 3c, 25 µM unlabelled peptide; for Intracellular concentration: mass spectrometry
Description: as §2

YAP–TEAD interaction = test: Proximity ligation assay (PLA) in RKO cells; format: cell-based; settings: 24 h incubation, c = 30 µM
Description: Ca. 5000 RKO cells were seeded per well in black 96-well plates with glass bottom (#5241-20, MoBiTec) and treated with the peptides or DMSO as vehicle control. After 24 h, the cells were fixed for 10 min using 4% paraformaldehyde (#UN2209, AppliChem) in PBS prior to permeabilization with 0.1% Triton X-100 (#39795.02, Serva) in PBS for 10 min. […] The cells were treated with the corresponding PLA probes (donkey anti-rabbit PLUS, #DUO92002, dilution 1:5; donkey anti-mouse MINUS, #DUO92004, dilution 1:5, Sigma-Aldrich) and with the Duolink In Situ Detection Orange Kit (#DUO92007, Sigma-Aldrich) for ligation and amplification according to the manufacturer's instructions. Finally, the cells were treated with 1 μg mL^-1 DAPI (#D9542, Sigma-Aldrich) to stain nuclei for further microscopy analysis. Images were acquired using a Zeiss Observer Z1 microscope with an 63× oil objective. Picture data were analysed by the ImageJ “analyze particles” macro to count PLA spots per cell. Ten pictures were counted for each condition per experiment. Statistical analysis was performed using Student's paired t test.

[5] = 90 minutes, fractionation, UPLC-MS
[6] = 24 hours, fractionation, UPLC-MS

T1 sequence (Q62296 210-427): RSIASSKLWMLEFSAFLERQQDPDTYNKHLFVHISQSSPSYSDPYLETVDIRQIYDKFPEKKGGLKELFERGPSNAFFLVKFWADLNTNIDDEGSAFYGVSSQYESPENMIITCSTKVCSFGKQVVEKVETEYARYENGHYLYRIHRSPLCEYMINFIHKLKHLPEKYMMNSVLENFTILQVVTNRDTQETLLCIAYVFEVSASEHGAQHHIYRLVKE
T2 sequence (P28347 209-426): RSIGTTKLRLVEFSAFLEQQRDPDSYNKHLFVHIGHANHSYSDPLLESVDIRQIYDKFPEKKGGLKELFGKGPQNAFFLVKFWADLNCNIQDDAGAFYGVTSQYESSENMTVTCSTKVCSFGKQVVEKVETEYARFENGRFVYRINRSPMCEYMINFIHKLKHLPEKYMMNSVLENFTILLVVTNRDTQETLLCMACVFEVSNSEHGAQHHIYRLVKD

Total drug content, Measured Concentration (RKO cells [1]; 24 hours, RIPA total lysis, UPLC-MS, diluted lysate, n = 2): < LLOQ | Total drug content, nMol (RKO cells [1]; 24 hours, total lysis, UPLC-MS, n = 2): < LLOQ | Total drug content, pMol.mg-1 (RKO cells [1]; 24 hours, total lysis, UPLC-MS, normalised to BCA protein, n = 2): < LLOQ | pMol/mg of protein, Mean (RKO cells [1]; total drug content, 90 minutes, mean of 2 replicates): 424.4 pMol/mg of protein | Kd (mTEAD4): 1200 nM | Kd (GST-hTEAD1): 700 nM | Sub-cellular drug content, Cytoplasm, Measured concentration (RKO cells [4]; [5]): < LLOQ | Sub-cellular drug content, Cytoplasm, nMol (RKO cells [4]; [5]): < LLOQ | Sub-cellular drug content, Nuclear, Measured concentration (RKO cells [4]; [5]): < LLOQ | Sub-cellular drug content, Nuclear, nMol (RKO cells [4]; [5]): < LLOQ | Sub-cellular drug content, Cytoplasm, pMol.mg-1 (RKO cells [4]; [5]): < LLOQ | Sub-cellular drug content, Nuclear, pMol.mg-1 (RKO cells [4]; [5]): < LLOQ | Sub-cellular drug content, Cytoplasm, Measured concentration (RKO cells [4]; [6]): < LLOQ | Sub-cellular drug content, Cytoplasm, nMol (RKO cells [4]; [6]): < LLOQ | Sub-cellular drug content, Nuclear, Measured concentration (RKO cells [4]; [6]): < LLOQ | Sub-cellular drug content, Nuclear, nMol (RKO cells [4]; [6]): < LLOQ | Sub-cellular drug content, Cytoplasm, pMol.mg-1 (RKO cells [4]; [6]): < LLOQ | Sub-cellular drug content, Nuclear, pMol.mg-1 (RKO cells [4]; [6]): < LLOQ | Cytoplasmic concentration of peptide (RKO cells [4]; UPLC-MS, raw data replicate 1): <LLOQ | Cytoplasmic concentration of peptide (RKO cells [4]; UPLC-MS, raw data replicate 2): <LLOQ | Nuclear concentration of peptide (RKO cells [4]; UPLC-MS, raw data replicate 1): <LLOQ | Nuclear concentration of peptide (RKO cells [4]; UPLC-MS, raw data replicate 2): <LLOQ | Cytoplasmic concentration, raw data (RKO cells [4]; UPLC-MS, replicate 1): <LLOQ | Nuclear concentration, raw data (RKO cells [4]; UPLC-MS, replicate 1): <LLOQ | Cytoplasmic concentration, raw data (RKO cells [4]; UPLC-MS, replicate 2): <LLOQ | Nuclear concentration, raw data (RKO cells [4]; UPLC-MS, replicate 2): <LLOQ | Detection in cytoplasmic and nuclear fractions (RKO cells [4]; unlabelled peptide 25 µM, 90 min and 24 h, fractionation, UPLC-MS): not detected in subcellular fractions | Intracellular concentration (RKO cells [4]; unlabelled peptide 25 µM, 90 min incubation, n = 2 biological replicates): < LLOQ | Intracellular concentration (RKO cells [4]; unlabelled peptide 25 µM, 24 hours incubation, N = 2 biological replicates): < LLOQ
SMILES: CC[C@H](C)[C@@H]1NC(=O)[C@H](CCC(N)=O)NC(=O)[C@H](CC(C)C)NC(=O)[C@H](Cc2c[nH]c3ccccc23)NC(=O)[C@H]([C@@H](C)O)NC(=O)[C@H](CC(=O)O)NC(=O)CNC(=O)[C@H](CC(C)C)NC(=O)[C@H](C)NC(=O)[C@H](CCCCN)NC(=O)[C@H](C)NC(=O)[C@H](Cc2ccccc2)NC(=O)[C@H](Cc2c[nH]cn2)NC(=O)[C@H](CC(=O)O)NC(=O)[C@@H](NC(=O)[C@@H](NC(=O)[C@H](CO)NC(C)=O)C(C)C)CCC(=O)NCCCC[C@@H](C(=O)N[C@@H](C)C(=O)N[C@@H](C)C(N)=O)NC1=O [4E] (Ac-SVEDHFAKALGDTWLQIKAA-NH2; lactam 3-18)
Effect on cardiomyocyte cell cycle activity ([2]; P5–P6 rat heart cells, 4-days incubation, Ki67/αActinin double-positive cells): has no effect | Cell cycle activity, MEAN ([2]; c = 10 µM, 4 days, relative to DMSO-treated cells (100), mean of N = 6): 92.7542 | Effect on wound closure (RKO cells [3]): no effect | Effect on YAP–TEAD complexes (PLA) (YAP–TEAD interaction): only shows a small change in PLA events
